According to ChEMBL document CHEMBL5120855, “Potent 2,3-dihydrophthalazine-1,4-dione derivatives as dual inhibitors for mono-ADP-ribosyltransferases PARP10 and PARP15” (Eur J Med Chem, 2022):

Tests used:
[1] = target: T1, Protein mono-ADP-ribosyltransferase PARP15 (Homo sapiens, UniProt Q460N3); assay: Inhibition of human N-terminal 6His-tagged PARP15 (460 to 656 residues) expressed in Escherichia coli Rosetta2 (DE3) cells using NAD+ as substrate incubated for 10 mins by fluorescence based analysis
T1 sequence (Q460N3 whole entry): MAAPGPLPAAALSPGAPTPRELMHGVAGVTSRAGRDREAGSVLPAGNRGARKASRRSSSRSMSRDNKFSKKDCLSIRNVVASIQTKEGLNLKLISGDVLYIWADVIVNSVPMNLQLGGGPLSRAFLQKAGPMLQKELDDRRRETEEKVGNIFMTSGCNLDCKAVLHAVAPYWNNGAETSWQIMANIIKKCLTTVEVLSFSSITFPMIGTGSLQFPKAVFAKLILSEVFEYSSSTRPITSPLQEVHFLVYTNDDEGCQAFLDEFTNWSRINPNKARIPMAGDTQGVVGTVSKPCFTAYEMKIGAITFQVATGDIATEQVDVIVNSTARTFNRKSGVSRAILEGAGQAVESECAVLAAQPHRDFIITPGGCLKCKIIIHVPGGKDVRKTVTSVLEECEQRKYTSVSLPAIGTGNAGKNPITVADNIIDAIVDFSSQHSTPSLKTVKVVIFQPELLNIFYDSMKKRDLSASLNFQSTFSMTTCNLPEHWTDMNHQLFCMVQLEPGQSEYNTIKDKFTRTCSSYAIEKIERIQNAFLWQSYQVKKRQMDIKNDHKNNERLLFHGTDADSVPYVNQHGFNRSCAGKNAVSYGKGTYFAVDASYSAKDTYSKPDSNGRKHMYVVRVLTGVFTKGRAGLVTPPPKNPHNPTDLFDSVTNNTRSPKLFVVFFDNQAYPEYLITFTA

[2] = target: T2, Poly [ADP-ribose] polymerase tankyrase-2 (Homo sapiens, UniProt Q9H2K2); assay: Inhibition of human N-terminal 6His-tagged TNKS2 (1030 to 1317 residues) expressed in Escherichia coli Rosetta2 (DE3) cells using NAD+ as substrate incubated for 10 mins by fluorescence based analysis
T2 sequence (Q9H2K2 whole entry): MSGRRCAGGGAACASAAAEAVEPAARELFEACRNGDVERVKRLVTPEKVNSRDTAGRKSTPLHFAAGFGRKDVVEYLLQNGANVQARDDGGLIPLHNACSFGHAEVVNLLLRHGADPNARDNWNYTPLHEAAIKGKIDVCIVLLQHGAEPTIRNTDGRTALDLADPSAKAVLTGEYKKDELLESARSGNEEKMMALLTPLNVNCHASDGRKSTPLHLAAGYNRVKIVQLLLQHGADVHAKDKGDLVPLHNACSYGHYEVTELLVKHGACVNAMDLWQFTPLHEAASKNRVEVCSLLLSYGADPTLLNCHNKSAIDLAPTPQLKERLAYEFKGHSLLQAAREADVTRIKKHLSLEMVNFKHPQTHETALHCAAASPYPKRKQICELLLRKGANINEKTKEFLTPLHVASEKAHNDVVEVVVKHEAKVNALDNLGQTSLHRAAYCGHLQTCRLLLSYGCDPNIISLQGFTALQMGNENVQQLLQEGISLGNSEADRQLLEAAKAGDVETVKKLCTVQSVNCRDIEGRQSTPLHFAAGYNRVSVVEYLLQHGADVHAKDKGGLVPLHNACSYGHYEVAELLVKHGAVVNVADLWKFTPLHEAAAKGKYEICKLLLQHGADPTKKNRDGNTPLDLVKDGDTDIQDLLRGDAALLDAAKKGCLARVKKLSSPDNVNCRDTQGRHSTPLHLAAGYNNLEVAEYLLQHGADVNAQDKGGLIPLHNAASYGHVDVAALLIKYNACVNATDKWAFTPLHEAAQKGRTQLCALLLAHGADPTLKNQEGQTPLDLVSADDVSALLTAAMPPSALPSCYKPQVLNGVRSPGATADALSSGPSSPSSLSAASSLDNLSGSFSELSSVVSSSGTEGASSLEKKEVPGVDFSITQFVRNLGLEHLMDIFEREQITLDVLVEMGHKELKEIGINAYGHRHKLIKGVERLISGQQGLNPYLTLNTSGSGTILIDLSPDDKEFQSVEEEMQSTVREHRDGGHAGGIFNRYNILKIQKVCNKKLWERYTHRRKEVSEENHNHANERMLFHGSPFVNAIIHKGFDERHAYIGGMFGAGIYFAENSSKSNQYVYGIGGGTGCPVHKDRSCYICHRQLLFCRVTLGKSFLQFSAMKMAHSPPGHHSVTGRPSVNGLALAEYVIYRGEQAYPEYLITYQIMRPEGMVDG

[3] = target: Poly [ADP-ribose] polymerase 1 (Homo sapiens, UniProt P09874); assay: Inhibition of human PARP-1 using NAD+ as substrate incubated for 10 mins by fluorescence based analysis
Chain of Poly [ADP-ribose] polymerase 1 (P09874 whole entry): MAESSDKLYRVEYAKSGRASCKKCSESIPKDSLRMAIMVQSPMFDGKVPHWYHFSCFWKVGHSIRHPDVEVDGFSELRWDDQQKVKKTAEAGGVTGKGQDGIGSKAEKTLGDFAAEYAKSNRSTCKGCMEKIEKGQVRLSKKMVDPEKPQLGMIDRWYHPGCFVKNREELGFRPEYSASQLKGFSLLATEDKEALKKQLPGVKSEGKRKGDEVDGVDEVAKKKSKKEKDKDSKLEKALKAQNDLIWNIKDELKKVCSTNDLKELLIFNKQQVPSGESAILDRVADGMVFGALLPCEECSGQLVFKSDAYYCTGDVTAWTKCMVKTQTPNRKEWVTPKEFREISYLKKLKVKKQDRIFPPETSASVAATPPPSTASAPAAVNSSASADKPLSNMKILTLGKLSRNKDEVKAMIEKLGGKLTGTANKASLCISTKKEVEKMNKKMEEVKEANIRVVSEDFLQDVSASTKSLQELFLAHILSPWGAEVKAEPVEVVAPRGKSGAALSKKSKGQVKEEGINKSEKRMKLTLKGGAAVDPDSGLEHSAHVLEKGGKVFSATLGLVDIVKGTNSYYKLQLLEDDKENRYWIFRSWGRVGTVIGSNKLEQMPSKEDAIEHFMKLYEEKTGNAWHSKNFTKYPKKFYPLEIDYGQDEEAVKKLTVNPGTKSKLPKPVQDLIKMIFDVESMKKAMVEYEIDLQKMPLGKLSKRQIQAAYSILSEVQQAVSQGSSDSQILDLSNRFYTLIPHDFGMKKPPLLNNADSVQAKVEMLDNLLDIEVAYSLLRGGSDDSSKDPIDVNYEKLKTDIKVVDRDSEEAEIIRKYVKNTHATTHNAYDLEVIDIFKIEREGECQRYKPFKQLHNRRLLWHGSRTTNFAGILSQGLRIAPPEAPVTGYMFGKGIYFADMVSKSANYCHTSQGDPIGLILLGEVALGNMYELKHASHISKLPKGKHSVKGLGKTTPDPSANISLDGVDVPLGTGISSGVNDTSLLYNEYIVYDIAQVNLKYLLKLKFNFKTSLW

[4] = target: T3, Protein mono-ADP-ribosyltransferase PARP3 (Homo sapiens, UniProt Q9Y6F1); assay: Inhibition of human PARP3
T3 sequence (Q9Y6F1 whole entry): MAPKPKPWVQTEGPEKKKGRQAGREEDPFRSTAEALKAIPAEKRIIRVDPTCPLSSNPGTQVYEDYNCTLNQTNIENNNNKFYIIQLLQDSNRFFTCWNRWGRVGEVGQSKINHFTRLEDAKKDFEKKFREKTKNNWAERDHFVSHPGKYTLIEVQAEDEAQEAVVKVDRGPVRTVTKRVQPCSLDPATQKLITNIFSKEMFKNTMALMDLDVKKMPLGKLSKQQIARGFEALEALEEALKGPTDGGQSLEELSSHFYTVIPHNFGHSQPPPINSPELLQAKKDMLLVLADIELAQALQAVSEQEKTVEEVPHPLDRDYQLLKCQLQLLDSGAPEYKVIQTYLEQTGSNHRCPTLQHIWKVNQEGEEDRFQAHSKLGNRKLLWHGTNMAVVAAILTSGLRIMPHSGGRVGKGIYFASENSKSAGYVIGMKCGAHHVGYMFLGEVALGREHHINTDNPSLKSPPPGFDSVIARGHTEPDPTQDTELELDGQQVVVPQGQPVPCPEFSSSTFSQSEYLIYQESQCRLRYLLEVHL

[5] = target: Protein mono-ADP-ribosyltransferase PARP4 (Homo sapiens, UniProt Q9UKK3); assay: Inhibition of human PARP4
Chain of Protein mono-ADP-ribosyltransferase PARP4 (Q9UKK3 whole entry): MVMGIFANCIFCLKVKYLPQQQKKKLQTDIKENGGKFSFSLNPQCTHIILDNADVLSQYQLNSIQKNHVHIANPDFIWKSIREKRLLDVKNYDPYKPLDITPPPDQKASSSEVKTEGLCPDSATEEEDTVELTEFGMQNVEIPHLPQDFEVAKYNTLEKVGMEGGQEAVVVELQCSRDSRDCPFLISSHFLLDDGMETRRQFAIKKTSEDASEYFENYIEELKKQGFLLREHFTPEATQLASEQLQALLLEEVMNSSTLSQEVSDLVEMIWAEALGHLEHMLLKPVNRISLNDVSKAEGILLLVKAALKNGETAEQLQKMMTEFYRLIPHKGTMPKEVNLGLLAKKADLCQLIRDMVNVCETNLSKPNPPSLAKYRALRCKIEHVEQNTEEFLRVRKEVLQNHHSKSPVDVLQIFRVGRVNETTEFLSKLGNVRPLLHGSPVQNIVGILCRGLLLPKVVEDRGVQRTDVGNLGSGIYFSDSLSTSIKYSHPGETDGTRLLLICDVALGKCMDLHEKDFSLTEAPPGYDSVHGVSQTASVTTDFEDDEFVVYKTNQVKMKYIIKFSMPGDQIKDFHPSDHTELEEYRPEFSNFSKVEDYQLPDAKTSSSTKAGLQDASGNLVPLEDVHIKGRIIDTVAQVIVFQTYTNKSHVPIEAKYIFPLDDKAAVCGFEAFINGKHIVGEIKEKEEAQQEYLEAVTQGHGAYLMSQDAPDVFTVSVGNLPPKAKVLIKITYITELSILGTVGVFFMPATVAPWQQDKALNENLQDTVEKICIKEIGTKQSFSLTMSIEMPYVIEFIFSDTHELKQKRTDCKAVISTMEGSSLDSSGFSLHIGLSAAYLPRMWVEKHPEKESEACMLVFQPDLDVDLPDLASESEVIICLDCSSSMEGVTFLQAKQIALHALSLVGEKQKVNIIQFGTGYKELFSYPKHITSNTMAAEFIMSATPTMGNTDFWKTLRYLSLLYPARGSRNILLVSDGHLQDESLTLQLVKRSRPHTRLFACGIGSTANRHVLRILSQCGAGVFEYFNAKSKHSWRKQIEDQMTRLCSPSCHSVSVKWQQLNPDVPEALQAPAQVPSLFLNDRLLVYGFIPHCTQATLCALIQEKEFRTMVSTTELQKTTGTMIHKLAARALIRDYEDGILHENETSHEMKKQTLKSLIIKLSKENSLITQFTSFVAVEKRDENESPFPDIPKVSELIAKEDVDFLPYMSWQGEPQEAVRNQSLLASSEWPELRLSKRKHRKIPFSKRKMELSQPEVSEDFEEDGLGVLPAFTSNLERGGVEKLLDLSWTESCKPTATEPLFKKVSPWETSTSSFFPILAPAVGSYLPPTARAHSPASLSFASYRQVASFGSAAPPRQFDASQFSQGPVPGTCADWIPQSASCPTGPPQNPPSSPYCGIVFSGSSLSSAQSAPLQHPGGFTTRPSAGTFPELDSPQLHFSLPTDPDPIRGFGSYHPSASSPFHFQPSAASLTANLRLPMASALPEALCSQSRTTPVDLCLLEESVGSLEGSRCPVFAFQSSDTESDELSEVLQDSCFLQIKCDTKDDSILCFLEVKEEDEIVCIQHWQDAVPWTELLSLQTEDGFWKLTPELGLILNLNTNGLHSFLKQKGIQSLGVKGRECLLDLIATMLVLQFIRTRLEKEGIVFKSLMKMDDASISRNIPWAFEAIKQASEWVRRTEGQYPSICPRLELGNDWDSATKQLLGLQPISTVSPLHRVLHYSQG

IC50 [1]: 2.4 µM
IC50 [2]: > 100 µM
IC50 [3]: > 100 µM
IC50 [4]: > 100 µM
IC50 [5]: > 100 µM
SMILES: NC(=O)c1ccc(OCC2CCC2)cc1
